Source: patent publication US20230181673A1, “TRI-PEPTIDES AND TREATMENT OF METABOLIC, CARDIOVASCULAR AND INFLAMMATORY DISORDERS” (Diapin Therapeutics, LLC, priority 2018, published 2023)
Non-standard residues stand in square brackets, D forms with d. No end group written: not given here.

Assays:
[1] = Body weight, food intake and adiposity in apoE−/− mice fed Western diet; assay type: in vivo; conditions: apoE−/− mice on WD; for Total gain in body weight from baseline to endpoint, lower by: 12 weeks oral gavage, DT-109 1 mg/g; for Gross appearance of the peritoneal cavities at endpoint (yellowish coloration of the liver, enlarged visceral fat pads): glycine 0.67, leucine 0.33, DT-109/DT-110 1 mg/g; for Adipocyte hypertrophy in EAT and SAT: H&E histology (FIG. 15L)
Text: All animal procedures were approved by the Institutional Animal Care & Use Committee of the University of Michigan (PRO00008239) and performed in accordance with the institutional guidelines. Eight-week-old male apolipoprotein E-deficient (apoE−/−) mice (B6.129P2-Apoetm1Unc/J, Stock No.: 002052) were obtained from Jackson Laboratories. Mice were fed Western diet (WD, 42% of calories from fat and 0.2% cholesterol by weight, Envigo TD.88137). After one week of WD feeding, blood was carefully collected from the facial vein to determine baseline plasma levels of total cholesterol (TC). […] All mice were maintained on a 12-hour light/dark cycle and had ad libitum access to food and water. Body weight and food intake were measured every one and three weeks, respectively
The experimental design is depicted in FIG. 1A. After one week of Western diet (WD) feeding to apoE−/− mice, blood was collected from the facial vein (FV) to determine baseline plasma levels of TC.
Animal procedures were approved (PRO00008239) by the Institutional Animal Care & Use Committee of the University of Michigan (U-M) and performed in accordance with the institutional guidelines. Seven weeks-old C57BL/6J or apoE−/− mice (B6.129P2-Apoetm1Unc/J, Stock:002052) were from Jackson Laboratories. AGXT1−/− mice on C57BL/6J background were generated using CRISPR/Cas9, with guide-RNA targeting exon 1 of AGXT1: 5′-[…]-3′.
Histological procedures were performed by technicians blinded to the experimental groups at the In Vivo Animal Core (IVAC) Histology Laboratory, University of Michigan. Formalin-fixed tissues were processed through graded alcohols and cleared with xylene followed by infiltration with molten paraffin using an automated VIP5 or VIP6 tissue processor (TissueTek, Sakura-Americas). Using a Histostar Embedding Station (ThermoFisher Scientific), tissues were then sectioned on a M355S rotary microtome (ThermoFisher Scientific) at 4 μm thickness and mounted on glass slides. Slides were stained for hematoxylin and eosin (H&E, ThermoFisher Scientific). For Sirius Red staining, slides were treated with 0.2 phosphomolybdic acid for 3 min and transferred to 0.1% Sirius Red saturated in picric acid (Rowley Biochemical Inc.) for 90 min, then transferred to 0.01N hydrochloric acid for 3 min.

[2] = system: hepatic gene expression; test: qPCR analysis of hepatic gene expression in WD-fed apoE−/− mice; assay type: in vivo; conditions: for Hepatic expression of CCL2 / Hepatic expression of TNFα / Hepatic expression of key genes regulating FAO (PPARα, PNPLA2, CACT, CPT1a, ACADL): apoE−/− mice on WD, qPCR (FIG. 16D)
Text: Eight-week-old male apolipoprotein E-deficient (apoE−/−) mice (B6.129P2-Apoetm1Unc/J, Stock No.: 002052) were obtained from Jackson Laboratories. Mice were fed Western diet (WD, 42% of calories from fat and 0.2% cholesterol by weight, Envigo TD.88137). After one week of WD feeding, blood was carefully collected from the facial vein to determine baseline plasma levels of total cholesterol (TC). […] All mice were maintained on a 12-hour light/dark cycle and had ad libitum access to food and water. Body weight and food intake were measured every one and three weeks, respectively
Total RNA from liver or adipose tissue samples was extracted using QIAGEN's RNeasy kits (QIAGEN). RNA was reverse-transcribed into cDNA with SuperScript III and random primers (Invitrogen). Specific transcript levels were assessed by a real-time PCR system (Bio-Rad) using IQ SYBR Green Supermix (Bio-Rad) and the ΔΔCt threshold cycle method of normalization. Gene expression levels were normalized to glyceraldehyde 3-phosphate dehydrogenase (GAPDH). Primer pairs used for qPCR were obtained from Integrated DNA Technologies and are listed below:
(§1) Total RNA from mouse liver samples was extracted using QIAGEN's RNeasy kits (QIAGEN). RNA was reverse-transcribed into cDNA with SuperScript III and random primers (Invitrogen). Specific transcript levels were assessed by a real-time PCR system (Bio-Rad) using IQ SYBR Green Supermix (Bio-Rad) and the ΔΔCt threshold cycle method of normalization. Gene expression levels were normalized to glycerldehyde 3-phosphate dehydrogenase (GAPDH).

[3] = system: hepatic gene expression; assay type: in vivo, mice; conditions: NASH-diet, liver
Procedure: as §1
Mice fed CD and administered H2O served as control.

[4] = system: plasma glucose; conditions: humans, glycine ingested together with glucose; cited from earlier work
[5] = system: circulating TG; conditions: apoE−/− mice, chronic glycine supplementation 1 mg/g/day; cited from earlier work
[6] = obese C57BL/6 mice, chronic glycine supplementation 1 mg/g/day; cited from earlier work
[7] = system: hemoglobin-A1c and plasma TNFR1; conditions: T2D patients, 5 g/day for 3 months; cited from earlier work
[8] = KK-Ay mice, dietary glycine; cited from earlier work
[9] = sucrose-fed rats; cited from earlier work
[10] = system: blood glucose; test: OGTT in C57BL/6J mice given glucose with glycine-based compounds; assay type: in vivo
Procedure: OGTT were performed in C57BL/6J mice after 12 h fasting (n=6-8).
OGTT were performed after 12 h fasting. […] Blood glucose concentrations were measured using a blood glucometer and test strips (Contour Next).

[11] = NASH-diet
Procedure: Body composition was assessed using nuclear magnetic resonance (NMR)-based analyzer (Minispec LF90II; Bruker Optics) at the U-M Animal Phenotyping Core. Oxygen consumption (VO2), carbon dioxide production (VCO2) and motor activity were measured using CLAMS (Columbus Instruments). Respiratory exchange ratio (RER) Is VCO2/VO2.
All measurements were performed by the University of Michigan Animal Phenotyping Core. Body fat, lean body mass, and free fluids were measured using a nuclear magnetic resonance (NMR)-based analyzer (Minispec LF90II; Bruker Optics). The analyzer is daily checked using a reference sample as recommended by the manufacture. The mice were placed individually into the measuring tube with minimum restrain. Oxygen consumption (VO2), carbon dioxide production (VCO2) and motor activity were measured using CLAMS (Columbus Instruments), an integrated open-circuit calorimeter equipped with an optical beam activity monitoring device. Mice were weighed before the measurements and individually placed into the sealed chambers (7.9″×4″×5″) with free access to food and water. The study was carried out in an experimentation room set at 20-23° C. with 12-12 h dark-light cycles (6:00 PM-6:00 AM). Measurements were carried out continuously for 48 h. During this time, animals were provided with food and water through the feeding and drinking devices located inside the chamber. VO2 and VCO2 in each chamber were sampled sequentially for 5 s in 10 min intervals and the motor activity was recorded every second in X and Z dimensions. The air flow rate through the chambers was adjusted to keep the oxygen differential around 0.3% at resting conditions. Respiratory exchange ratio (RER) was calculated as VCO2/VO2. Total energy expenditure, glucose oxidation and fat oxidation were calculated based on the values of VO2, VCO2, and the protein breakdown.

[12] = system: SMAD2; conditions: NASH-diet, liver
Procedure: Liver samples were lysed in radioimmunoprecipitation assay lysis buffer (RIPA buffer, Thermo Scientific) supplemented with a protease/phosphatase inhibitor cocktail (Roche Applied Science). Proteins were resolved in 10% sodium dodecyl sulfate polyacrylamide gel electrophoresis (SDS-PAGE) and transferred to nitrocellulose membranes (Bio-Rad). The membranes were blocked for 1 h at room temperature in tris-buffered saline-Tween 20 (TBST) containing 5% fat-free milk and incubated with primary antibody at 4° C. overnight. The following primary antibodies were used: AGXT1 (Santa Cruz Biotechnology sa-517388, 1:500), HADHA (Proteintech 10758-1-AP, 1:1000), ACAA2 (ABcional A15778, 1:500), phospho-SMAD2 (Ser485/487, Cell Signaling, #3108S; 1:1000), SMAD2 (Cell Signaling Technology, #5339S; 1:1000), GAPDH (Santa Cruz Biotechnology so-365062; 1:2000), or β-Actin (Cell Signaling Technology #3700). The membranes were washed with TBST before incubated with IRDye-conjugated secondary antibodies (LI-COR Biosciences, 1:10000) at room temperature for 1 h. After TBST washing, bands were visualized and quantified using an Odyssey Infrared Imaging System (LI-COR Biosciences, version 2.1).

[13] = system: gut microbiota; conditions: mice with established NASH
Procedure: Total genomic DNA of the gut microbiota was extracted from fecal samples using the QIAamp DNA Stool Mini Kit (51540, Qiagen) according to the manufacturer's instructions. DNA was prepared for community analysis as previously described.17 Briefly, barcoded dual-index primers specific to the V4 region of the 16S rRNA gene were used to amplify the DNA.18 PCR reactions were composed of 5 μL of 4 μM equimolar primer set, 0.15 μL of AccuPrime Taq DNA High Fidelity Polymerase, 2 μL of 10×AccuPrime PCR Buffer II (Thermo Fisher Scientific 12346094), 11.85 μL of PCR-grade water, and 1 μL of DNA template. […] The normalized reactions were pooled and quantified using the Kapa Biosystems Library qPCR MasterMix (ROX Low) Quantification kit for Illumina platforms (KK4873). […]
DNA sequencing data was processed using Mothur according to SOP and focused primarily on α- and β-diversity based analyses. […] Constrained ordination RDA (redundancy analysis) was calculated, and the significance of environmental variables was checked by forward selection analysis. […] The principal component analysis (PCA) was plotted accordingly using Phyloseq package in R. The correlations between changes in the altered bacterial genera and NAFLD-related parameters in the liver or plasma were calculated using nonparametric Spearman's test.

[14] = system: blood glucose; conditions: previous studies from the applicant's lab; cited from earlier work
[15] = 0.5 mg/g/day DT-109, compared to the H2O controls

Compound | Total gain in body weight from baseline to endpoint, lower by ([1]; glycine 0.67 mg/g, vs WD+H2O) [%] | Gross appearance of the peritoneal cavities at endpoint (yellowish coloration of the liver, enlarged visceral fat pads) ([1]; 12 weeks) | Adipocyte hypertrophy in EAT and SAT [1] | Hepatic expression of CCL2 [2] | Hepatic expression of TNFα [2] | Hepatic expression of key genes regulating FAO (PPARα, PNPLA2, CACT, CPT1a, ACADL) [2] | Hepatic expression of ABCG5 and ABCG8 ([2]; liver, endpoint, qPCR) | Hepatic expression of AMPKα1 and PPARα ([2]; liver, endpoint, qPCR) | Hepatic expression of PNPLA2, CPT1a, CACT, ACADI and UCP2 ([2]; liver, endpoint, qPCR) | NFKB2, RELB and TNFα expression (qPCR) [3] | TGFβ-related genes (qPCR) [3] | further results
NCC(=O)O [glycine, reference compound] | 51 | attenuated | reduced | downregulation | without significant changes | upregulation | significantly increased | significantly induced | significantly upregulated | significantly downregulated | – | Endpoint body weight, lower by ([1]; oral gavage 6 times per week, 12 weeks, glycine 0.67 mg/g, vs WD+H2O): 12%; Hepatic expression of genes regulating gluconeogenesis (G6pc, PCK1 and FBP1) ([2]; liver, endpoint, qPCR): no significant change; Hepatic expression of genes regulating glucose uptake (GLUT1, GLUT2 and GLUT4) ([2]; liver, endpoint, qPCR): upregulated; MCP1 expression in the liver ([2]; liver, endpoint, qPCR): suppressed; Attenuation of the increase in plasma glucose [4]: > 50%; Circulating TG [5]: reduce circulating TG; Glucose tolerance and fat loss [6]: restore glucose tolerance and accelerate fat loss; Hemoglobin-A1c and plasma TNFR1 [7]: reduced hemoglobin-A1c and plasma TNFR1; Glucose tolerance, circulating TG, ALT, HS and inflammatory infiltration [8]: improved glucose tolerance, lowered circulating TG and alanine-aminotransferase (ALT), while attenuating HS and inflammatory infiltration; Intra-abdominal fat, plasma TG and FAO markers in hepatic mitochondria [9]: reduced intra-abdominal fat, plasma TG and increased FAO markers in hepatic mitochondria
CC(C)C[C@H](N)C(=O)O [leucine] | – | yellowish coloration of the liver and enlarged visceral fat pads | – | – | – | – | – | – | – | – | markedly upregulated | –
Gly-Gly-Leu [DT-109] | 28 | attenuated | reduced | downregulation | without significant changes | upregulation | significantly increased | significantly induced | significantly upregulated | significantly downregulated | attenuated | Glucose-lowering effect in OGTT compared with glycine ([10]; 12 h fasting, glucose 2 mg/g with 0.5 mg/g compound, oral): lowered glucose more efficiently than glycine; Glucose-lowering effect in OGTT compared with equivalent levels of free leucine or glycine ([10]; DT-109 0.5 mg/g vs leucine 0.17 or glycine 0.33 mg/g): particularly when compared to equivalent levels of its individual AA; CCL2, CCR2 and CCR5 expression (qPCR) ([3]; 0.5 mg/g/day DT-109): downregulated; Body fat [11, 15]: reduced body fat; Lean mass [11, 15]: preserved lean mass; Respiratory exchange ratio (RER) ([11]; CLAMS weeks 22-23, DT-109 at 0.5 mg/g/day): no significant differences; SMAD2 Ser465/467 phosphorylation [12]: reduced SMAD2 Ser465/467 phosphorylation; Bacterial genus Alistipes in gut microbiota [13]: increased; Bacterial genus Clostridium sensu stricto in gut microbiota [13]: decreased; Glucose-lowering effects (previous studies) [14]: profound glucose-lowering effects
Gly-Gly-[dL] [DT-110] | – | attenuated | – | – | – | – | significantly increased | significantly induced | significantly upregulated | – | – | Hepatic GLUT1 expression ([2]; liver, endpoint, qPCR): markedly induced; Hepatic expression of LDLR ([2]; liver, endpoint, qPCR): significant upregulation
